Reference: ChEMBL document CHEMBL1142317, “In vitro antitumor activity of the water soluble copper(I) complexes bearing the tris(hydroxymethyl)phosphine ligand” (J Med Chem, 2008)

How the values were obtained:
Assay type in all cases: functional, cell-based
[1] = tested on: LoVo; assay: Cytotoxicity against human LoVo cells after 48 hrs by MTT assay
[2] = tested on: LoVo; assay: Cytotoxicity against human multidrug resistant LoVo cells after 48 hrs by MTT assay
[3] = tested on: Daudi; assay: Cytotoxicity against human Daudi cells after 48 hrs by MTT assay
[4] = tested on: HCT-15; assay: Cytotoxicity against human HCT15 cells after 48 hrs by MTT assay; conditions: HCT-15, 48 h
[5] = tested on: HeLa; assay: Cytotoxicity against human HeLa cells after 48 hrs by MTT assay
[6] = tested on: Caco-2; assay: Cytotoxicity against human CaCo2 cells after 48 hrs by MTT assay; conditions: Caco-2, 48 h
[7] = tested on: MCF7; assay: Cytotoxicity against human MCF7 cells after 48 hrs by MTT assay; conditions: MCF7, 48 h
[8] = tested on: HL-60; assay: Cytotoxicity against human HL60 cells after 48 hrs by MTT assay; conditions: HL-60, 48 h
[9] = tested on: HepG2; assay: Cytotoxicity against human HepG2 cells after 48 hrs by MTT assay; conditions: HepG2, 48 h
[10] = tested on: A549; assay: Cytotoxicity against human A549 cells after 48 hrs by MTT assay; conditions: A549, 48 h
[11] = tested on: A-375; assay: Cytotoxicity against human A375 cells after 48 hrs by MTT assay; conditions: A-375, 48 h

| Compound | IC50 [1] | IC50 [2] | IC50 [3] | IC50 [4] | IC50 [5] | IC50 [6] | IC50 [7] | IC50 [8] | IC50 [9] | IC50 [10] | IC50 [11] |
| --- | --- | --- | --- | --- | --- | --- | --- | --- | --- | --- | --- |
| COc1cccc2c1C(=O)c1c(O)c3c(c(O)c1C2=O)C[C@@](O)(C(=O)CO)C[C@@H]3O[C@H]1C[C@H](N)[C@H](O)[C@H](C)O1 [DOXORUBICIN] | 1.46 µM | 44.9 µM |  |  |  |  |  |  |  |  |  |
| OCP(CO)CO [TRIS(HYDROXYMETHYL)PHOSPHINE] |  |  | > 100 µM | > 100 µM | > 100 µM | > 100 µM | 64.2 µM | 68.6 µM | 98.7 µM | 72.9 µM | 88.7 µM |
| OCP(CO)CCP(CO)CO |  |  | > 100 µM | 91.7 µM | > 100 µM | 84.1 µM | > 100 µM | 83.7 µM | 71.7 µM | > 100 µM | 73.2 µM |
